Key:
[1] = target: Mu-type opioid receptor (Homo sapiens, UniProt P35372); assay: biochemical; assay type: functional
[2] = target: D(3) dopamine receptor (Homo sapiens, UniProt P35462)
[3] = target: 5-hydroxytryptamine receptor 2B (Homo sapiens, UniProt P41595); assay type: functional, cell-based
[4] = target: T1, Alpha-2A adrenergic receptor (Homo sapiens, UniProt P08913); assay type: functional, cell-based
T1 sequence (P08913 whole entry): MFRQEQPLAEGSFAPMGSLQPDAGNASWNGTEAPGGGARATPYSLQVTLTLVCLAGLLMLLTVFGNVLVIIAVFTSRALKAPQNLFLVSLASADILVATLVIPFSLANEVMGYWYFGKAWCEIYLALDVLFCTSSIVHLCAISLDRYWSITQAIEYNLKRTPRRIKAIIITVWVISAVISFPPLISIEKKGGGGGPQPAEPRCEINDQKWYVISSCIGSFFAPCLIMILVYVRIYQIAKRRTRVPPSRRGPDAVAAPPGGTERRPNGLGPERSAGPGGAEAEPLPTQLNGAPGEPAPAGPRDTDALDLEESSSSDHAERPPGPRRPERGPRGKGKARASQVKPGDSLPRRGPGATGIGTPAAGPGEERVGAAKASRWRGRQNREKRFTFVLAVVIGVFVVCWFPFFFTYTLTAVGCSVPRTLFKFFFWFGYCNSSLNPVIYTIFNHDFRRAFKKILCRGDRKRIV

[5] = target: T2, 5-hydroxytryptamine receptor 1A (Homo sapiens, UniProt P08908); assay type: functional, cell-based
T2 sequence (P08908 whole entry): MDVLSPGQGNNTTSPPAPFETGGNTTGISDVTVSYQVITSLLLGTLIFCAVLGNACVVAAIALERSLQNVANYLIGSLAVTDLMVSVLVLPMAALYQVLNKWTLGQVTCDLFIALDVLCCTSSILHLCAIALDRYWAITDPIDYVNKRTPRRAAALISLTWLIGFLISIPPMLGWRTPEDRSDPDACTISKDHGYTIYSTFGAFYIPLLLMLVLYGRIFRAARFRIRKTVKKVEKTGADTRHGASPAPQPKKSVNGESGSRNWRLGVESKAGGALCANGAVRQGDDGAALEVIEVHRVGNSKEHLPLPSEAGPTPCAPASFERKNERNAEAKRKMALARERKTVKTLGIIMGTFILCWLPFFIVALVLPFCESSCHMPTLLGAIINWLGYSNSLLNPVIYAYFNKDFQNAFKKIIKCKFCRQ

[6] = target: Glutamate receptor ionotropic, NMDA 1 (Rattus norvegicus, UniProt P35439)
[7] = target: Neuronal acetylcholine receptor subunit alpha-4 (Homo sapiens, UniProt P43681)
[8] = target: Adenosine receptor A2a (Homo sapiens, UniProt P29274)
[9] = target: T3, Neuropeptide Y receptor type 1 (Homo sapiens, UniProt P25929)
T3 sequence (P25929 whole entry): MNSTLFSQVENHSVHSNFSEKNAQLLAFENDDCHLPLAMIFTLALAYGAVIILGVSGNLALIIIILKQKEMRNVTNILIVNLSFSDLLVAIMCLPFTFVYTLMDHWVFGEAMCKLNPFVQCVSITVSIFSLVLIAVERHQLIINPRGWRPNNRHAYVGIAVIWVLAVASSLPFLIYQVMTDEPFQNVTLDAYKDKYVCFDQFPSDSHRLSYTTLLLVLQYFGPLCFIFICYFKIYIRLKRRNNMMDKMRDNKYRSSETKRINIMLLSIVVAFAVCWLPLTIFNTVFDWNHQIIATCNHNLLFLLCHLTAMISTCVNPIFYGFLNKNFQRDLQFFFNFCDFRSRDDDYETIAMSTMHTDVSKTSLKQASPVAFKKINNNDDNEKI

[10] = target: T4, Estrogen receptor (Homo sapiens, UniProt P03372)
T4 sequence (P03372 whole entry): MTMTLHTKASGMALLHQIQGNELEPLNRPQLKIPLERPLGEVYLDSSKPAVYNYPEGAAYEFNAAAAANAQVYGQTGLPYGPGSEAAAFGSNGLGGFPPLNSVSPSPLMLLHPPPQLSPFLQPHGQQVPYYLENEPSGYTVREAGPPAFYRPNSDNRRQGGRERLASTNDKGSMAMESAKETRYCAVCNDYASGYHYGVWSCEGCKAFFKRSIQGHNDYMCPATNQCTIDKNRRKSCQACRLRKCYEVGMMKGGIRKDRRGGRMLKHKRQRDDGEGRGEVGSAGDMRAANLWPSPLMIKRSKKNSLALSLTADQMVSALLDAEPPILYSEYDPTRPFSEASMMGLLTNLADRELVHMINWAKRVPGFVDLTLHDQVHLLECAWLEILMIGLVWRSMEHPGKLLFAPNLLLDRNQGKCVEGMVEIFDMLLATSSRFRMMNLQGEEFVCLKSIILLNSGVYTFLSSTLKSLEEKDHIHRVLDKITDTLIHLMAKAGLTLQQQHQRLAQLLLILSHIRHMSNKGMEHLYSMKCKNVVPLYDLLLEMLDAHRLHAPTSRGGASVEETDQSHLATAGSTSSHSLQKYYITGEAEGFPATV

[11] = target: 3',5'-cyclic-AMP phosphodiesterase 4D (Homo sapiens, UniProt Q08499); assay type: functional
[12] = target: D(1A) dopamine receptor (Homo sapiens, UniProt P21728); assay type: functional, cell-based
[13] = target: T5, Alpha-1A adrenergic receptor (Homo sapiens, UniProt P35348); assay type: functional, cell-based
T5 sequence (P35348 whole entry): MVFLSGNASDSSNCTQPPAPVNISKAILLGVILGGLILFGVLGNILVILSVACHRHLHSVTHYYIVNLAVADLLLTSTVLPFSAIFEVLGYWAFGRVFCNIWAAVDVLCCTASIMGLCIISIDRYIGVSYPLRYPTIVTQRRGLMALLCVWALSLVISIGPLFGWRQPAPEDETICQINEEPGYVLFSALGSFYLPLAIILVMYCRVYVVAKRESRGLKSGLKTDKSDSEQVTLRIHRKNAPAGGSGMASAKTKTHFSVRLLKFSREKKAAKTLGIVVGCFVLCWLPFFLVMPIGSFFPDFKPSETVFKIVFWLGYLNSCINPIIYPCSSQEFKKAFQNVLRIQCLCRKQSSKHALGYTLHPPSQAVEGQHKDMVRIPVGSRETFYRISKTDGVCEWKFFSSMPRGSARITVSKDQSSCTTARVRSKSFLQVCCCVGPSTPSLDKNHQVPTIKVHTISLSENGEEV

[14] = target: Cannabinoid receptor 1 (Homo sapiens, UniProt P21554); assay type: functional, cell-based
Note: assay procedure not described here.

Sequence of D(3) dopamine receptor (P35462 whole entry): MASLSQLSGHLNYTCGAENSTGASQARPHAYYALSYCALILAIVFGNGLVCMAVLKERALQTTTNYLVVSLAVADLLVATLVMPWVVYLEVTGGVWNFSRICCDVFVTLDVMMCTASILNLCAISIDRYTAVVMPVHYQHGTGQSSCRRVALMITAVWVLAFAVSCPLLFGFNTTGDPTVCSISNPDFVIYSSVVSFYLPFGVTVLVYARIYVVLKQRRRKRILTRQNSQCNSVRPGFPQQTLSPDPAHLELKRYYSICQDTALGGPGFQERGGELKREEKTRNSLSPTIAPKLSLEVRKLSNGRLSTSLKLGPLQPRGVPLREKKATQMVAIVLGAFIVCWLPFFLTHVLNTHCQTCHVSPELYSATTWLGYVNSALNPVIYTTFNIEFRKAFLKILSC
Sequence of Cannabinoid receptor 1 (P21554 whole entry): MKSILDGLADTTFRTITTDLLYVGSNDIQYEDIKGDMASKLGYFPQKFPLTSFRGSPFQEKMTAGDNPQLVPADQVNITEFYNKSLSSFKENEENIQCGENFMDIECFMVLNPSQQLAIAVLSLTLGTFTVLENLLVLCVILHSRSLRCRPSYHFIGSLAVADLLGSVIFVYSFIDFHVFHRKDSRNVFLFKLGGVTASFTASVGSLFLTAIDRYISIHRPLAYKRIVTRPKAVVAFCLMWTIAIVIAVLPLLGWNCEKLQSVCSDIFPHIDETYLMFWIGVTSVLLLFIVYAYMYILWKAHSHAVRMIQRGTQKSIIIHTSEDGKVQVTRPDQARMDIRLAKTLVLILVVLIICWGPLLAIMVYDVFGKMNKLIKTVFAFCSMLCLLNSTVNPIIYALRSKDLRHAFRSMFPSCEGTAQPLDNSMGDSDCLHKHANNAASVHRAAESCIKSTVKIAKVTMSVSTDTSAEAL
Sequence of 5-hydroxytryptamine receptor 2B (P41595 whole entry): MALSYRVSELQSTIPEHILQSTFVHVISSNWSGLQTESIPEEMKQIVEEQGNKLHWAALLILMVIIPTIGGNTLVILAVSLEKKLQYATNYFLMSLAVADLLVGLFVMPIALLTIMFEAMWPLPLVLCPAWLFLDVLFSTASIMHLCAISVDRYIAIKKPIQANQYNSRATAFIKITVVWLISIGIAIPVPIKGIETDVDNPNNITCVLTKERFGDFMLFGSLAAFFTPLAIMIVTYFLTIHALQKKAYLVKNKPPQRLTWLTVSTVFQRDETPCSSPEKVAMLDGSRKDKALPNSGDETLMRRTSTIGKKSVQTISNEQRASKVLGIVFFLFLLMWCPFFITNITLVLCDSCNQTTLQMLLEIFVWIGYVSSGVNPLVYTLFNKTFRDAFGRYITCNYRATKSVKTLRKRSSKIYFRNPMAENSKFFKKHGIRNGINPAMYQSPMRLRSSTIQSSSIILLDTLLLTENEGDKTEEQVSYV
Sequence of Neuronal acetylcholine receptor subunit alpha-4 (P43681 whole entry): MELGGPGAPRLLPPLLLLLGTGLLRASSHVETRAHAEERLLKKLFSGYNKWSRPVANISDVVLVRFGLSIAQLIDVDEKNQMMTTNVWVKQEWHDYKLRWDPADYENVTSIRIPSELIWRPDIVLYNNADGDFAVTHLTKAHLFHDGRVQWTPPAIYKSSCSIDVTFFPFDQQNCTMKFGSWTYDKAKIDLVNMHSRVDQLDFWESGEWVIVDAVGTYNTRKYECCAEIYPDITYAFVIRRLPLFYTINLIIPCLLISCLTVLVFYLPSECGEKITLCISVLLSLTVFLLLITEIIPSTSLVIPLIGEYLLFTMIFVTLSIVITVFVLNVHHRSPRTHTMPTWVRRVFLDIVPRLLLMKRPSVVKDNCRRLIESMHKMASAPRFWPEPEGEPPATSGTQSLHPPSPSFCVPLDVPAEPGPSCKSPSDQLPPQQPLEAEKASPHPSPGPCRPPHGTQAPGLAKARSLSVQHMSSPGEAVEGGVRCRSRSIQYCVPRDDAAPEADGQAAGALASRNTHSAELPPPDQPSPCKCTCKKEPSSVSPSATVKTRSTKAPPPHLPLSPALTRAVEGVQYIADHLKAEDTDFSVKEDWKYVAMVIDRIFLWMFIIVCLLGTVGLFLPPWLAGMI
Sequence of D(1A) dopamine receptor (P21728 whole entry): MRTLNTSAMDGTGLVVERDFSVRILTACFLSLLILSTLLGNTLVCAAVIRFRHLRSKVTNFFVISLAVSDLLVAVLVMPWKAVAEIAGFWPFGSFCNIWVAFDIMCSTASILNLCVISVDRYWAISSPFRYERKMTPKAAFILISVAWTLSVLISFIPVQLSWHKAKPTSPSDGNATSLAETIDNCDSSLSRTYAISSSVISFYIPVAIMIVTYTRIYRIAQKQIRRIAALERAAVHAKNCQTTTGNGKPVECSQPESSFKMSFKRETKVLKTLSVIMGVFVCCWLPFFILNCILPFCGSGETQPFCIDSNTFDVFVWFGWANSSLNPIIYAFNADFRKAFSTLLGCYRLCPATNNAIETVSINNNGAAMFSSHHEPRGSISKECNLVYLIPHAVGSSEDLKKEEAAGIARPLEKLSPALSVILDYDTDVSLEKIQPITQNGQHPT
Sequence of Mu-type opioid receptor (P35372 whole entry): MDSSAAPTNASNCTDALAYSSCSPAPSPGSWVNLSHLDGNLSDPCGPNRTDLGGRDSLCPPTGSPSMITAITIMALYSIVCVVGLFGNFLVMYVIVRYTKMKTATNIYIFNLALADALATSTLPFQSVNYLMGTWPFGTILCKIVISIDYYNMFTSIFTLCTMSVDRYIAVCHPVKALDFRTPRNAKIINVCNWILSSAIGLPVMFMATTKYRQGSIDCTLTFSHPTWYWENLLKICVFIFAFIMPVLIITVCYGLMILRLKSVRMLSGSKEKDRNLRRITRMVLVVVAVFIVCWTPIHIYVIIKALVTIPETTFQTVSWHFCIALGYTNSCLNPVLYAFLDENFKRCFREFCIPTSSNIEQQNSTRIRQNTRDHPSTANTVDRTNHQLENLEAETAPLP
Sequence of 3',5'-cyclic-AMP phosphodiesterase 4D (Q08499 whole entry): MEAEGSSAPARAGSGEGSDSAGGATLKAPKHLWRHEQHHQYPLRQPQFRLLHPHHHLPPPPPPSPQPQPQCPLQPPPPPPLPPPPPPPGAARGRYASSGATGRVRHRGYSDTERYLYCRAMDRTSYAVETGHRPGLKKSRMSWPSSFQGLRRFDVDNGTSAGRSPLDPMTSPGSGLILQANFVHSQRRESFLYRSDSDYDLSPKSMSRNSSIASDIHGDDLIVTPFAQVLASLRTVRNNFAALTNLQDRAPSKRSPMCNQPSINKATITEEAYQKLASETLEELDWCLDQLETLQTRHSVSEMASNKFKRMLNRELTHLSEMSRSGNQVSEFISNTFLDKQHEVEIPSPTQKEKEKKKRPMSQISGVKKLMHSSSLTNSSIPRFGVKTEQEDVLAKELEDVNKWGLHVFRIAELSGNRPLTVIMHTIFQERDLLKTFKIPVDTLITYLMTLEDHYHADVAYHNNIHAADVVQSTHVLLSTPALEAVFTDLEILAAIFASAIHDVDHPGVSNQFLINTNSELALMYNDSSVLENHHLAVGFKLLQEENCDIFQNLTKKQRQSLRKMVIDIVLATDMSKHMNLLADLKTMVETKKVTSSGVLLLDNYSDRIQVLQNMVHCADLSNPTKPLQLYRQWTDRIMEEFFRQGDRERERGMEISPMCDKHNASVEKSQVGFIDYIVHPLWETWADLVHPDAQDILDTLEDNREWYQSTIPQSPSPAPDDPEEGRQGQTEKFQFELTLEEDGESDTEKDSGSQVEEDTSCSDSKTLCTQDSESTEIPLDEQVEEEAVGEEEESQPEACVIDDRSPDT
Sequence of Adenosine receptor A2a (P29274 whole entry): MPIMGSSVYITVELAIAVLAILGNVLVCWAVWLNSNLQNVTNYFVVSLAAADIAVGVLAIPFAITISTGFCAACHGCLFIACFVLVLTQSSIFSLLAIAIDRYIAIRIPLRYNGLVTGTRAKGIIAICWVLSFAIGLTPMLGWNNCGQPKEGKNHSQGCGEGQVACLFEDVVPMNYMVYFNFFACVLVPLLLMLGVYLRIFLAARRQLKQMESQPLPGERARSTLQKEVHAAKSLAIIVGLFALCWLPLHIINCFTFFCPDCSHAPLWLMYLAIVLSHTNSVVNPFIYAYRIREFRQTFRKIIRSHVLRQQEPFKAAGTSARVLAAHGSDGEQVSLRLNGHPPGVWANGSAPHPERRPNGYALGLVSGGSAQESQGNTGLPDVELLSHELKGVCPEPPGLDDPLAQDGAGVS

Structure (SMILES) | AC50 [1] | AC50 [2] | AC50 [3] | AC50 [4] | AC50 [5] | AC50 [6] | AC50 [7] | AC50 [8] | AC50 [9] | AC50 [10] | AC50 [11] | AC50 [12] | AC50 [13] | AC50 [14]
COc1ccc(/C=C/C(=O)Nc2ccccc2C(=O)O)cc1OC | > 30 µM | > 30 µM | > 30 µM | > 30 µM | > 30 µM | > 30 µM | > 30 µM | > 30 µM | > 30 µM | > 30 µM | 21 µM | > 30 µM | – | –
C=CC1=C(C(=O)O)N2C(=O)[C@@H](NC(=O)/C(=N\OCC(=O)O)c3csc(N)n3)[C@H]2SC1 [CEFIXIME] | > 30 µM | – | – | > 30 µM | > 30 µM | – | > 30 µM | > 30 µM | > 30 µM | > 30 µM | > 30 µM | > 30 µM | > 30 µM | > 30 µM
CO[C@@]1(NC(=O)Cc2cccs2)C(=O)N2C(C(=O)O)=C(COC(N)=O)CS[C@@H]21 [CEFOXITIN] | > 30 µM | > 30 µM | > 30 µM | > 30 µM | > 30 µM | > 30 µM | > 30 µM | > 30 µM | > 30 µM | > 30 µM | > 30 µM | > 30 µM | – | > 30 µM
CC(=O)O[C@H]1C[C@@H]2CC[C@@H]3[C@H](CC[C@@]4(C)[C@H]3C[C@H]([N+]3(C)CCCCC3)[C@@H]4OC(C)=O)[C@@]2(C)C[C@@H]1[N+]1(C)CCCCC1 [PANCURONIUM] | > 30 µM | > 30 µM | > 10 µM | > 10 µM | > 10 µM | > 10 µM | > 10 µM | > 10 µM | > 10 µM | > 10 µM | > 30 µM | > 10 µM | – | –

Now from value to compound:

AC50 [1] | AC50 [2] | AC50 [3] | AC50 [4] | AC50 [5] | AC50 [6] | AC50 [7] | AC50 [8] | AC50 [9] | AC50 [10] | AC50 [11] | AC50 [12] | AC50 [13] | AC50 [14] | Structure (SMILES)
> 30 µM | > 30 µM | 28 µM | > 30 µM | > 30 µM | > 30 µM | > 30 µM | > 30 µM | > 30 µM | > 30 µM | 4.4 µM | > 30 µM | – | – | COC(=O)N[C@@H](C)CNc1nccc(-c2cn(C(C)C)nc2-c2cc(Cl)cc(NS(C)(=O)=O)c2F)n1 [ENCORAFENIB]
> 30 µM | > 30 µM | > 30 µM | > 30 µM | > 30 µM | > 30 µM | > 30 µM | > 30 µM | > 30 µM | > 30 µM | > 30 µM | > 30 µM | > 30 µM | – | Nc1nc(F)nc2c1ncn2[C@@H]1O[C@H](COP(=O)(O)O)[C@@H](O)[C@@H]1O [FLUDARABINE PHOSPHATE]
> 30 µM | > 30 µM | > 30 µM | > 30 µM | > 30 µM | – | > 30 µM | > 30 µM | > 30 µM | > 30 µM | > 30 µM | > 30 µM | > 30 µM | > 30 µM | O=C(O)c1ccccc1OP(=O)(O)O [FOSFOSAL]
